Measurements as given in patent publication US9120749B2, “Quinoline derivatives and MELK inhibitors containing the same” (ONCOTHERAPY SCIENCE, INC., priority 2010, dated 2015).
Counter-ions that a name gives are not always drawn. Like-named read-outs stand apart in the source and are kept apart here.

Legend:
MELK = MELK (Homo sapiens, UniProt Q14680); assay: Kinase assay: MELK activity, phosphorylation of FITC-labeled histone H3 peptide measured by IMAP fluorescence polarization; assay type: biochemical; conditions: read-out: IC50 (μM) (kinase assay)
Sequence of MELK (Q14680 whole entry, looked up): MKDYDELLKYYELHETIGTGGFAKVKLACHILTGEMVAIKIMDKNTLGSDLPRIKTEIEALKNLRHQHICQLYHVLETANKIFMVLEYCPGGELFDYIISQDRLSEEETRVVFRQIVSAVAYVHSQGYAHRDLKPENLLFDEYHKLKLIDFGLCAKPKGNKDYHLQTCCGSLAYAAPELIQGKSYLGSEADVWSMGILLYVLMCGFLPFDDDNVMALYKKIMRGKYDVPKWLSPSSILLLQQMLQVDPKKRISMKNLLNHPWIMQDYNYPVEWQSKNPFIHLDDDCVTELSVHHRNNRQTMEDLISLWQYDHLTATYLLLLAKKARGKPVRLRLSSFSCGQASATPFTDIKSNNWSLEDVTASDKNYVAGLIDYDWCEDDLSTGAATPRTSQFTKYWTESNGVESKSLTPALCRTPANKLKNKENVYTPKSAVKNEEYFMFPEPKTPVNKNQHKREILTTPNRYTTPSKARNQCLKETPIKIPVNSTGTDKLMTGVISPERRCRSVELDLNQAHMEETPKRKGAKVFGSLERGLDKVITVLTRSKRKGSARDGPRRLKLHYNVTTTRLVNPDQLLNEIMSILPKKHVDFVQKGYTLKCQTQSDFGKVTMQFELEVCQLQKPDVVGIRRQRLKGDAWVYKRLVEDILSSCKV
How it was run: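 A FITC-labelled histone H3 peptide served as substrate, with compounds serially diluted to 1% DMSO final. Reactions were stopped with three volumes of IMAP progressive binding solution. After 0.5 h at room temperature, fluorescence polarization was read.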

22Rv1 cells = assay: Cell-based assay: anti-proliferative activity, Cell Counting Kit-8, 72 hours (22Rv1); conditions: Homo sapiens, 22Rv1, 72 h
HT-1197 cells = assay: Cell-based assay: anti-proliferative activity, Cell Counting Kit-8, 72 hours (HT-1197, negative control without MELK expression); conditions: HT1197 cells (negative control, no MELK expression), 72 hours
How it was run: (§1)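 T47D, A549 and BT-549 cells, with MELK-negative HT-1197 as control (MELK status checked by western blot), seeded at 2,000–3,000 cells/well. Growth measured by CCK-8 72 hours after inhibitor exposure; IC50 values calculated.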

A549 cells = assay: Cell-based assay: anti-proliferative activity, Cell Counting Kit-8, 72 hours (A549); conditions: Homo sapiens, A549, 72 h, 72 hours
How it was run: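 A549 cells were seeded in 96-well plates and exposed to candidate inhibitors for 72 hours. Cell growth was then measured with Cell Counting Kit-8, and IC50 values were calculated from the resulting growth data.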

T47D cells = assay: Cell-based assay: anti-proliferative activity, Cell Counting Kit-8, 72 hours (T47D); conditions: Homo sapiens, T47D, 72 h
How it was run: as §1

DU4475 cells = assay: Cell-based assay: anti-proliferative activity, Cell Counting Kit-8, 72 hours (DU4475); conditions: Homo sapiens, DU-4475, 72 h
[1] = MELK kinase assay, IMAP fluorescence polarization, 50 micro-M ATP

Structure (SMILES): COc1cc(-c2ccc3ncc(C(C)=O)c(N[C@H]4CC[C@H](CN5CCC[C@H]5CO)CC4)c3c2)cc(Cl)c1O [Example 793, 1-(6-(3-chloro-4-hydroxy-5-methoxyphenyl)-4-((1S,4r)-4-(((S)-2-(hydroxymethyl)pyrrolidin-1-yl)methyl)cyclohexylamino)quinolin-3-yl)ethanone]
- IC50 (MELK): 0.0018 µM
- IC50 (22Rv1 cells): 0.34 µM
- IC50 (HT-1197 cells; Homo sapiens, HT1197, 72 h): 7.1 µM
- IC50 (A549 cells): 0.17 µM
- IC50 (T47D cells): 0.15 µM
- IC50 (DU4475 cells): 0.33 µM

Structure (SMILES): CNC1CCN(c2ccc(Nc3c(C(C)=O)cnc4ccc(-c5cc(F)c(O)c(Cl)c5)cc34)cn2)C1 (stereo not drawn) [Example 785, 1-(6-(3-chloro-5-fluoro-4-hydroxyphenyl)-4-((6-(3-(methylamino)pyrrolidin-1-yl)pyridin-3-yl)amino)quinolin-3-yl)ethanone trihydrochloride]
- IC50 (MELK): 0.0056 µM
- IC50 (22Rv1 cells): 0.076 µM
- IC50 (HT-1197 cells; Homo sapiens, HT1197, 72 h): 1.3 µM
- IC50 (A549 cells): 0.094 µM
- IC50 (T47D cells): 0.035 µM
- IC50 (DU4475 cells): 0.074 µM

Structure (SMILES): CCC(=O)c1cnc2ccc(-c3cc(F)c(O)c(Cl)c3)cc2c1Nc1ccc(N2CCCC(N)C2)nc1 (stereo not drawn) [Example 825, 1-(4-(6-(3-aminopiperidin-1-yl)pyridin-3-ylamino)-6-(3-chloro-5-fluoro-4-hydroxyphenyl)quinolin-3-yl)propan-1-one]
- IC50 (MELK; [1]): 0.0018 µM
- IC50 (22Rv1 cells): 0.016 µM
- IC50 (HT-1197 cells; Homo sapiens, HT1197, 72 h): 0.069 µM
- IC50 (A549 cells): 0.017 µM
- IC50 (T47D cells): 0.01 µM
- IC50 (DU4475 cells): 0.018 µM

Structure (SMILES): CCC(=O)c1cnc2ccc(-c3cc(Cl)c(O)c(OC)c3)cc2c1Nc1ccc(N2CCC(N)C2)nc1 (stereo not drawn) [Example 775, 1-(4-(6-(3-aminopyrrolidin-1-yl)pyridin-3-ylamino)-6-(3-chloro-4-hydroxy-5-methoxyphenyl)quinolin-3-yl)propan-1-one]
- IC50 (MELK): 0.0034 µM
- IC50 (22Rv1 cells): 0.12 µM
- IC50 (HT-1197 cells; Homo sapiens, HT1197, 72 h): 0.75 µM
- IC50 (A549 cells): 0.049 µM
- IC50 (T47D cells): 0.049 µM
- IC50 (DU4475 cells): 0.065 µM

Structure (SMILES): CCN(CC)C[C@H]1CC[C@H](Nc2c(C(C)=O)cnc3ccc(-c4cc(Cl)c(O)c(Cl)c4)cc23)CC1 [Example 790]
- IC50 (MELK): 0.0018 µM
- IC50 (22Rv1 cells): 0.14 µM
- IC50 (HT-1197 cells; Homo sapiens, HT1197, 72 h): 4.2 µM
- IC50 (A549 cells): 0.14 µM
- IC50 (T47D cells): 0.1 µM
- IC50 (DU4475 cells): 0.098 µM

Structure (SMILES): CCC(=O)c1cnc2ccc(-c3cc(Cl)c(O)c(Cl)c3)cc2c1Nc1ccc(N2CCCC(N)C2)nc1 (stereo not drawn) [Example 824, 1-(4-(6-(3-aminopiperidin-1-yl)pyridin-3-ylamino)-6-(3,5-dichloro-4-hydroxyphenyl)quinolin-3-yl)propan-1-one]
- IC50 (MELK; [1]): 0.0016 µM
- IC50 (22Rv1 cells): 0.026 µM
- IC50 (HT-1197 cells; Homo sapiens, HT1197, 72 h): 0.28 µM
- IC50 (A549 cells): 0.036 µM
- IC50 (T47D cells): 0.021 µM
- IC50 (DU4475 cells): 0.026 µM

Structure (SMILES): CC(=O)c1cnc2ccc(-c3cc(Cl)c(O)c(Cl)c3)cc2c1N[C@H]1CC[C@H](CN2CCCC2)CC1 [Example 767]
- IC50 (MELK): 0.0018 µM
- IC50 (22Rv1 cells): 0.15 µM
- IC50 (HT-1197 cells; Homo sapiens, HT1197, 72 h): 24 µM
- IC50 (A549 cells): 0.16 µM
- IC50 (T47D cells): 0.12 µM
- IC50 (DU4475 cells): 0.083 µM

Structure (SMILES): CC(=O)c1cnc2ccc(-c3cc(Cl)c(O)c(Cl)c3)cc2c1N[C@H]1CC[C@H](CN2CCNCC2)CC1 [Example 772, 1-(6-(3,5-dichloro-4-hydroxyphenyl)-4-((trans-4-(piperazin-1-ylmethyl)cyclohexyl)amino)quinolin-3-yl)ethanone dihydrochloride]
- IC50 (MELK): 0.0021 µM
- IC50 (22Rv1 cells): 0.14 µM
- IC50 (HT-1197 cells; Homo sapiens, HT1197, 72 h): 3.2 µM
- IC50 (A549 cells): 0.26 µM
- IC50 (T47D cells): 0.058 µM
- IC50 (DU4475 cells): 0.076 µM

Structure (SMILES): CC(=O)c1cnc2ccc(-c3cc(Cl)c(O)c(Cl)c3)cc2c1Nc1ccc(N2CCC(N(C)C)C2)nc1 (stereo not drawn) [Example 854, 1-(6-(3,5-dichloro-4-hydroxyphenyl)-4-((6-(3-(dimethylamino)pyrrolidin-1-yl)pyridin-3-yl)amino)quinolin-3-yl)ethanone]
- IC50 (MELK; [1]): 0.0032 µM
- IC50 (22Rv1 cells): 0.51 µM
- IC50 (HT-1197 cells): 10 µM
- IC50 (A549 cells): 0.39 µM
- IC50 (T47D cells): 0.25 µM
- IC50 (DU4475 cells): 0.28 µM

Structure (SMILES): CC(=O)c1cnc2ccc(-c3cc(F)c(O)c(Cl)c3)cc2c1Nc1ccc(OCCN(C)C)nc1 [Example 848, 1-(6-(3-chloro-5-fluoro-4-hydroxyphenyl)-4-(6-(2-(dimethylamino)ethoxy)pyridin-3-ylamino)quinolin-3-yl)ethanone hydrochloride]
- IC50 (MELK; [1]): 0.011 µM
- IC50 (22Rv1 cells): 0.44 µM
- IC50 (HT-1197 cells; Homo sapiens, HT1197, 72 h): 5.3 µM
- IC50 (A549 cells): 0.29 µM
- IC50 (T47D cells): 0.14 µM
- IC50 (DU4475 cells): 0.16 µM
